Read-outs that look alike come from different tables or passages of the source.
Tests used:
[1] = test system: NO secretion by BV-2 cell line; experiment: NO secretion by LPS/IFN-γ-activated BV-2 cells (Griess Reagent System); format: cell-based, Mouse; conditions: for IC50: Mus musculus, BV-2, 24 h co-incubation
Description: (§1) Step 1: BV-2 cells in the exponential growth phase were collected, and viable cells were counted using a Vi-Cell XR cell counter. The cell suspension was adjusted to an appropriate concentration with the culture medium. 160 μL of cell suspension was added to each well of a 96-well cell culture plate, resulting in a final cell concentration of 12,000 cells per well. The culture plate was incubated for 24 hours in a 37° C., 5% CO2 incubator.
(§2) Step 2: A 10 mM DMSO compound stock solution was diluted at a ratio of 1:4 using DMSO to prepare a series of 1000× test compound solutions. These 1000× test compound solutions were further diluted at a ratio of 1:100 using cell culture medium to prepare a series of 10× test compound solutions. Finally, the 96-well plate that had been plated with cells the day before was taken out. According to the experimental well plate loading design, 20 μL of the corresponding 10× solution was added to each well, with three duplicate wells for each drug concentration. The final concentrations of the test compounds used in the experiment (i.e., 1× solutions) have a range of 10, 2.5, 0.625, 0.156, 0.0391, 0.0098, and 0.0024 μM. The final DMSO concentration in each well was 0.1%.
(§3) After the compound was added, the 96-well plate was incubated for half an hour in the 37° C., 5% CO2 incubator.
(§4) After the pre-incubation was completed, 20 μL of culture medium containing 100 ng/mL LPS and 100 ng/mL IFN-γ (final concentrations of 10 ng/mL LPS and 10 ng/mL IFN-7) was added to each well to induce the activation of BV-2 cells. The culture plate was then incubated for 24 hours in the 37° C., 5% CO2 incubator.
(§5) Step 3: After 24 hours of treatment with the compound, the culture plate was centrifuged at 1200 rpm for 5 minutes. The supernatant was pipetted into another plate, which was sealed with tinfoil and stored at −20° C. for future ELISA and Griess reagent system assays. The cell culture plate from which the supernatant had been removed was immediately used for cell proliferation assays using the CellTiter-Glo (CTG) method.
(§6) Step 5 (NO and CCL5 detection): The CCL5 levels in the supernatant were detected using an ELISA kit (Mouse CCL5/RANTES DuoSet ELISA; R&D; DY478-05), following the instructions provided with the kit. The nitric oxide (NO) levels in the supernatant were detected using the Griess Reagent System (Promega; G2930), following the instructions provided with the kit.
(§7) Step 1: Firstly, the optical density values obtained from ELISA and Griess tests were used to plot a standard curve and calculate the absolute concentrations of each sample. The absolute concentration was then calibrated using the CTG fluorescence value corresponding to each sample to obtain the calibrated concentration. The formula for calculating the calibrated concentration was: calibrated concentration=absolute concentration/CTG fluorescence value of the same sample.
Step 2: Based on the calibrated concentration of each sample, the relative percentage of CCL5 or NO secretion (i.e., CCL5 production (%) or NO production (%)) at each test concentration relative to the blank (DMSO) group was calculated. The formula for calculating the relative percentage was: relative percentage %=(calibrated concentration of the test concentration group)/(calibrated concentration of the blank group).
Step 3: Finally, the relative percentage of CCL5 secretion or the relative percentage of NO secretion was plotted against the logarithm of the compound concentration. […]

BV-2 cells = experiment: CTG cell proliferation assay, LPS/IFN-γ-activated BV-2 cells; format: cell-based, Mouse
Description: as §1, §2, §3, §4, §5
Step 4: In the cell culture plate from which the supernatant had been removed, 100 μL of PBS was added to each well. According to the instructions of the CellTiter-Glo (CTG) kit, 50 μL of pre-melted and room-temperature balanced CTG solution was added to each well. The plate was then mixed for 2 minutes using a microplate shaker. After letting it stand at room temperature for 10 minutes, the fluorescence signal value was measured using an Envision 2104 plate reader.
Step 1: Using the CTG fluorescence signal values, the percentage of surviving cells (surviving cells %) at each test concentration relative to the blank (DMSO) group was calculated. The formula was: surviving cells %=fluorescence value of the test concentration group/fluorescence value of the blank group.
Step 2: the percentage of surviving cells was plotted against the logarithm of the compound concentration. Nonlinear regression was used to fit the curve, and the formula “log(inhibitor) vs. response—Variable slope” in the software GraphPad Prism 5 was employed to calculate the IC50 value.
Step 3: The formula for calculating the inhibition rate was: inh. (%)={fluorescence value of the blank group−fluorescence value of the test concentration group}/fluorescence value of the blank (DMSO) group.

[2] = test system: mouse CCL5 secretion by BV-2 cell line; experiment: CCL5 secretion by LPS/IFN-γ-activated BV-2 cells (ELISA); format: cell-based
Description: as §1, §2, §3
as §4, with “incubator. […]” for “incubator.”
as §6, §7
Step 2: Based on the calibrated concentration of each sample, the relative percentage of CCL5 or NO secretion (i.e., CCL5 production (%) or NO production (%)) at each test concentration relative to the blank (DMSO) group was calculated. […]

[3] = 24 h co-incubation, up to 10 μM

CCc1cc(/C(C)=N/OCc2ccc(C3CCCCC3)c(C(F)(F)F)c2)ccc1CN1CC(C(=O)O)C1 [Siponimod, reference compound]
Maximum inhibition rate on NO secretion by BV-2 [1, 3]: 7.71%
IC50 ([1]; read-out: IC50 on NO secretion by BV-2): > 10 µM
IC50 ([1]; read-out: IC50 on NO secretion by BV-2 (text of b102)): > 10 µM
inhibitory effect on cell proliferation (BV-2 cells; 24 h co-incubation with BV-2, highest test concentration 10 μM): no significant inhibitory effect on cell proliferation
inhibition at up to 10 µM (BV-2 cells; Mus musculus, BV-2, 24 h co-incubation, LPS/IFN-γ, highest concentration 10 μM, read-out: Maximum inhibition rate on BV-2 cell proliferation): 4.44%
Maximum inhibition rate on CCL5 secretion by BV-2 [2, 3]: 35.16%
IC50 ([2]; Mus musculus, BV-2, 24 h co-incubation): > 10 µM

Reference: US20240238299A1, “USE OF PYRROLOPYRIMIDINE COMPOUND” (GUANGZHOU JOYO PHARMATECH CO., LTD, priority 2021, published 2024)
